US10287252B2, “Inhibitors of tryptophan-2,3-dioxygenase or indoleamine-2,3-dioxygenase” (IOmet Pharma Ltd., priority 2014, dated 2019)

Key:
IDO [1] = target: T1, IDO (Homo sapiens, UniProt P14902); experiment: hIDO biochemical coupled assay; conditions: 45 μM L-tryptophan, coupled with kynurenine formamidase
Experimental: (§1) Exemplary compounds of the invention were prepared, and tested to determine their effect as TDO and/or IDO inhibitors. Two different assays were employed: 1. a cell-based assay for detecting the effect of test compounds on kynurenine production in two different cancer cell types. This assay utilised cancer cells which expressed either TDO or IDO and as such was used as a means of testing compound activity at these two enzymes in a cell-based context. 2. a TDO and IDO biochemical coupled assay which utilised recombinantly produced and purified TDO and IDO enzymes in combination with the enzyme formamidase. This coupled enzyme system allowed conversion of N-formylkynurenine produced by TDO or IDO activity to kynurenine which was then quantified by fluorescence following addition of Erhlich's Reagent The protocols for these are set out below.
(§2) TDO and IDO Biochemical Coupled Assay
(§3) Recombinant human IDO or TDO was incubated in 50 mM KPO4 (pH 7.0), 0.5 mM EGTA, 0.5 mM EDTA, 0.05% Triton™ X100, 20 mM ascorbate, 10 μM methylene blue, 500 U/ml catalase, 50 μg/ml KynB (kynurenine formamidase). TDO assays were carried out in the presence of 330 μM L-tryptophan, while IDO assays had the addition of 45 μM L-tryptophan. After incubation for 17 minutes at room temperature the reactions were stopped by the addition of Erhlich's reagent and incubated at room temperature for 5 minutes before the fluorescence was read (Ex475, Em530).

TDO [2] = target: T2, TDO (Homo sapiens, UniProt P48775); experiment: hTDO biochemical coupled assay; conditions: 330 μM L-tryptophan, coupled with kynurenine formamidase
T2 sequence (P48775 whole entry): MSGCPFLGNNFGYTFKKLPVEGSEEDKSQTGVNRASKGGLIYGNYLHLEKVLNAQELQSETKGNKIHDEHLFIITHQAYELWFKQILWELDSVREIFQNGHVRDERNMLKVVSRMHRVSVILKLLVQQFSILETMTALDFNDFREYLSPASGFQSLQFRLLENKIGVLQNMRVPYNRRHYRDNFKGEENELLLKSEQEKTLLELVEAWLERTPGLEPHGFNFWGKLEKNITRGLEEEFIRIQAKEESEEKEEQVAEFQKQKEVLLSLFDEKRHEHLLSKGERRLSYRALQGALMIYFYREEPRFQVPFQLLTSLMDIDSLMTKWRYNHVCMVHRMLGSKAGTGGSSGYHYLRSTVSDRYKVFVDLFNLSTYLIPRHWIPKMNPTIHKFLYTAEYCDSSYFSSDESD
Experimental: as §1, §2, §3

TDO [3] = target: T2, TDO; experiment: A172 Kynurenine cell based assay; set-up: This assay utilised cancer cells which expressed either TDO or IDO; endogenous in cells; host or cells: A172 (human glioblastoma); conditions: A172 (human glioblastoma) cells, 500 μM L-tryptophan, 48 hours, kynurenine by Erhlich's reagent
Experimental: as §1
(§4) Cell Based Assay for Detection of Kynurenine Produced by TDO and/or IDO
(§5) A172 (human glioblastoma) and SKOV3 (human ovarian adenocarcinoma) cells were seeded in a 96 well plate at 30,000 or 40,000 cells per well respectively in phenol red-free RPMI supplemented with 10% FCS, 2 mM L-glutamine and 500 μM L-tryptophan. IDO expression was induced in the SKOV3 cells by the addition of 500 ng/ml IFN-γ. Cells were incubated at 37° C. with or without the addition of test compound. After 48 hours, the cells were removed by centrifugation and Erhlich's reagent was added to the supernatant. The Erhlich's reagent was incubated for 5 minutes before the absorbance was read at 490 nm.

IDO [4] = target: T1, IDO; experiment: SKOV3 Kynurenine cell based assay; set-up: IDO expression was induced in the SKOV3 cells by the addition of 500 ng/ml IFN-γ; endogenous in cells; host or cells: SKOV3 (human ovarian adenocarcinoma), induced with IFN-γ; conditions: SKOV3 (human ovarian adenocarcinoma) cells, IDO induced by 500 ng/ml IFN-γ, 500 μM L-tryptophan, 48 hours
Experimental: as §1, §4, §5

T1 sequence (P14902 whole entry): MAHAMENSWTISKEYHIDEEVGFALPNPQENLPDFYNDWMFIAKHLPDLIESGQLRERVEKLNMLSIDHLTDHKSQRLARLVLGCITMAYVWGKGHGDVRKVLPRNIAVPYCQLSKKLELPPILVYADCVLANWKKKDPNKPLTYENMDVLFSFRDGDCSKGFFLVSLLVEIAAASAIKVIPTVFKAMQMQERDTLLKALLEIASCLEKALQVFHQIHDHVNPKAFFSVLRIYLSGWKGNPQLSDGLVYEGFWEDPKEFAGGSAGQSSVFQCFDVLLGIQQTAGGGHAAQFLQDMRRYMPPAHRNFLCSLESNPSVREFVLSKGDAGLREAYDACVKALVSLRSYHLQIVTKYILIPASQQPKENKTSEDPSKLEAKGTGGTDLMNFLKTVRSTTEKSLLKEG

## Cc1cc2c(NS(=O)(=O)c3ccccc3)cccc2nn1 [Compound 1]
IDO [1]
  hIDO biochemical assay pIC50: ++ (++ = pIC50 4.50-5.49)
TDO [2]
  hTDO biochemical assay pIC50: ++ (++ = pIC50 4.50-5.49)
TDO [3]
  A172 Kynurenine cell based assay pIC50: + (+ = pIC50 4.00-4.49)
IDO [4]
  SKOV3 Kynurenine cell based assay pIC50: + (+ = pIC50 4.00-4.49)

## Cc1cc2c(NC(=O)c3ccc4ncccc4c3)cccc2nn1 [Compound 2]
IDO [1]
  hIDO biochemical assay pIC50: +/− (+/− = pIC50 <4.00)
TDO [2]
  hTDO biochemical assay pIC50: ++ (++ = pIC50 4.50-5.49)
TDO [3]
  A172 Kynurenine cell based assay pIC50: + (+ = pIC50 4.00-4.49)
IDO [4]
  SKOV3 Kynurenine cell based assay pIC50: + (+ = pIC50 4.00-4.49)

## Cc1cc2c(NC(=O)c3ccc4ccccc4n3)cccc2nn1 [Compound 3]
IDO [1]
  hIDO biochemical assay pIC50: +/− (+/− = pIC50 <4.00)
TDO [2]
  hTDO biochemical assay pIC50: + (+ = pIC50 4.00-4.49)
TDO [3]
  A172 Kynurenine cell based assay pIC50: + (+ = pIC50 4.00-4.49)
IDO [4]
  SKOV3 Kynurenine cell based assay pIC50: +/− (+/− = pIC50 <4.00)

## CC(C)CS(=O)(=O)Nc1cccc2cnccc12 [Compound 4]
IDO [1]
  hIDO biochemical assay pIC50: ++ (++ = pIC50 4.50-5.49)
TDO [2]
  hTDO biochemical assay pIC50: +++ (+++ = pIC50 ≥5.50)
TDO [3]
  A172 Kynurenine cell based assay pIC50: + (+ = pIC50 4.00-4.49)
IDO [4]
  SKOV3 Kynurenine cell based assay pIC50: +/− (+/− = pIC50 <4.00)

## O=C(Nc1cccc2cnccc12)C1COc2ccccc2C1 (stereo not drawn) [Compound 6]
IDO [1]
  hIDO biochemical assay pIC50: +++ (+++ = pIC50 ≥5.50)
TDO [2]
  hTDO biochemical assay pIC50: +++ (+++ = pIC50 ≥5.50)
TDO [3]
  A172 Kynurenine cell based assay pIC50: + (+ = pIC50 4.00-4.49)
IDO [4]
  SKOV3 Kynurenine cell based assay pIC50: ++ (++ = pIC50 4.50-5.49)

## O=S(=O)(Nc1cccc2cnccc12)c1ccccc1 [Compound 9]
IDO [1]
  hIDO biochemical assay pIC50: ++ (++ = pIC50 4.50-5.49)
TDO [2]
  hTDO biochemical assay pIC50: ++ (++ = pIC50 4.50-5.49)
TDO [3]
  A172 Kynurenine cell based assay pIC50: +++ (+++ = pIC50 ≥5.50)
IDO [4]
  SKOV3 Kynurenine cell based assay pIC50: ++ (++ = pIC50 4.50-5.49)

## COc1cccc(S(=O)(=O)Nc2cccc3cnccc23)c1 [Compound 14]
IDO [1]
  hIDO biochemical assay pIC50: ++ (++ = pIC50 4.50-5.49)
TDO [3]
  A172 Kynurenine cell based assay pIC50: +++ (+++ = pIC50 ≥5.50)
IDO [4]
  SKOV3 Kynurenine cell based assay pIC50: ++ (++ = pIC50 4.50-5.49)

## O=S(=O)(Nc1cccc2cnccc12)c1cccc2ccccc12 [Compound 16]
IDO [1]
  hIDO biochemical assay pIC50: ++ (++ = pIC50 4.50-5.49)
TDO [2]
  hTDO biochemical assay pIC50: + (+ = pIC50 4.00-4.49)
TDO [3]
  A172 Kynurenine cell based assay pIC50: ++ (++ = pIC50 4.50-5.49)
IDO [4]
  SKOV3 Kynurenine cell based assay pIC50: ++ (++ = pIC50 4.50-5.49)

## O=S(=O)(NC1CCCc2cnccc21)c1ccccc1 (stereo not drawn) [Compound 49]
TDO [3]
  A172 Kynurenine cell based assay pIC50: +/− (+/− = pIC50 <4.00)
IDO [4]
  SKOV3 Kynurenine cell based assay pIC50: + (+ = pIC50 4.00-4.49)

## O=S(=O)(NC1CCCc2cnccc21)c1ccc(-c2ccccc2)cc1 (stereo not drawn) [Compound 50]
TDO [3]
  A172 Kynurenine cell based assay pIC50: +/− (+/− = pIC50 <4.00)
IDO [4]
  SKOV3 Kynurenine cell based assay pIC50: +++ (+++ = pIC50 ≥5.50)

## O=S(=O)(NC1CCCc2cnccc21)c1ccc(Cl)cc1 (stereo not drawn) [Compound 51]
TDO [3]
  A172 Kynurenine cell based assay pIC50: +/− (+/− = pIC50 <4.00)
IDO [4]
  SKOV3 Kynurenine cell based assay pIC50: ++ (++ = pIC50 4.50-5.49)

## CC(C)Oc1ccc(S(=O)(=O)NC2CCCc3cnccc32)cc1 (stereo not drawn) [Compound 52]
TDO [3]; read-out: A172 Kynurenine cell based assay pIC50 (converted)
  IC50: > 100 µM
IDO [4]; read-out: SKOV3 Kynurenine cell based assay pIC50 (converted)
  IC50: ≤ 3.16 µM

## CC(C)Oc1ccc(S(=O)(=O)Nc2cccc3ccncc23)cc1 [Compound 53]
TDO [3]
  A172 Kynurenine cell based assay pIC50: + (+ = pIC50 4.00-4.49)
IDO [4]
  SKOV3 Kynurenine cell based assay pIC50: + (+ = pIC50 4.00-4.49)

## O=S(=O)(Nc1cccc2ccncc12)c1ccc(-c2ccccc2)cc1 [Compound 54]
TDO [3]
  A172 Kynurenine cell based assay pIC50: + (+ = pIC50 4.00-4.49)
IDO [4]
  SKOV3 Kynurenine cell based assay pIC50: + (+ = pIC50 4.00-4.49)

## O=S(=O)(Nc1cccc2ccncc12)c1ccc(Cl)cc1 [Compound 55]
TDO [3]
  A172 Kynurenine cell based assay pIC50: + (+ = pIC50 4.00-4.49)
IDO [4]
  SKOV3 Kynurenine cell based assay pIC50: ++ (++ = pIC50 4.50-5.49)

## O=S(=O)(Nc1cccc2ccncc12)c1ccccc1 [Compound 56]
IDO [1]
  hIDO biochemical assay pIC50: + (+ = pIC50 4.00-4.49)
TDO [2]
  hTDO biochemical assay pIC50: +/− (+/− = pIC50 <4.00)
TDO [3]
  A172 Kynurenine cell based assay pIC50: +/− (+/− = pIC50 <4.00)
IDO [4]
  SKOV3 Kynurenine cell based assay pIC50: + (+ = pIC50 4.00-4.49)

## O=S(=O)(Nc1cc(Cl)cc2cnccc12)c1ccc(Cl)cc1 [Compound 57]
IDO [1]
  hIDO biochemical assay pIC50: + (+ = pIC50 4.00-4.49)
TDO [2]
  hTDO biochemical assay pIC50: +/− (+/− = pIC50 <4.00)
TDO [3]
  A172 Kynurenine cell based assay pIC50: +/− (+/− = pIC50 <4.00)
IDO [4]
  SKOV3 Kynurenine cell based assay pIC50: ++ (++ = pIC50 4.50-5.49)

## CC(C)Oc1ccc(S(=O)(=O)Nc2cc(Cl)cc3cnccc23)cc1 [Compound 58]
IDO [1]
  hIDO biochemical assay pIC50: + (+ = pIC50 4.00-4.49)
TDO [2]
  hTDO biochemical assay pIC50: +/− (+/− = pIC50 <4.00)
TDO [3]
  A172 Kynurenine cell based assay pIC50: +/− (+/− = pIC50 <4.00)
IDO [4]
  SKOV3 Kynurenine cell based assay pIC50: ++ (++ = pIC50 4.50-5.49)
